According to ChEMBL document CHEMBL5154882, “Discovery of 4-Hydroxyquinazoline Derivatives as Small Molecular BET/PARP1 Inhibitors That Induce Defective Homologous Recombination and Lead to Synthetic Lethality for Triple-Negative Breast Cancer Therapy” (J Med Chem, 2022):
Calls of active or inactive are those of the source.

What was measured:
[1] = tested on: MDA-MB-231; experiment: Induction of DNA damage in human MDA-MB-231 cells assessed as increase in tail DNA measured at 1 uM after 3 days by comet assay; type: functional, cell-based; settings: time 3.0 day
[2] = tested on: MDA-MB-468; experiment: Induction of apoptosis in human MDA-MB-468 cells assessed as up-regulation of Bax protein level at incubated for 72 hrs in presence of olaparib by Western blot analysis; type: functional, cell-based
[3] = tested on: MDA-MB-468; experiment: Cell cycle arrest in human MDA-MB-468 cells assessed as accumulation at G0/G1 phase incubated for 72 hrs in presence of olaparib by propidium iodide staining-based flow cytometry analysis (reference value: 61.4%); type: functional
[4] = tested on: MDA-MB-468; experiment: Cell cycle arrest in human MDA-MB-468 cells assessed as accumulation at S phase incubated for 72 hrs in presence of olaparib by propidium iodide staining-based flow cytometry analysis (Rvb=16.1%); type: functional
[5] = tested on: MDA-MB-231; experiment: Induction of DNA damage in human MDA-MB-231 cells assessed as increase in tail DNA at 1 uM measured after 3 days in presence of olaparib by comet assay; type: functional, cell-based; settings: time 3.0 day
[6] = tested on: MDA-MB-468; experiment: Induction of apoptosis in human MDA-MB-468 cells assessed as early apoptotic cells at 1 uM incubated for 72 hrs in presence of olaparib by annexin V/propidium iodide staining-based flow cytometry analysis (reference value: 4.07%); type: functional
[7] = tested on: MDA-MB-468; experiment: Induction of apoptosis in human MDA-MB-468 cells assessed as late apoptotic cells at 1 uM incubated for 72 hrs in presence of olaparib by annexin V/propidium iodide staining-based flow cytometry analysis (reference value: 1.34%); type: functional
[8] = tested on: MDA-MB-468; experiment: Induction of apoptosis in human MDA-MB-468 cells assessed as up-regulation of cleaved caspase 3 protein level incubated for 72 hrs in presence of olaparib by Western blot analysis; type: functional, cell-based
[9] = tested on: MDA-MB-468; experiment: Induction of apoptosis in human MDA-MB-468 cells assessed as downregulation of Bcl-2 protein level incubated for 72 hrs in presence of olaparib by Western blot analysis; type: functional, cell-based
[10] = tested on: MDA-MB-468; experiment: Induction of DNA damage in human MDA-MB-468 cells assessed as up-regulation of gammaH2AX expression level at 1 uM in presence of olaparib by DAPI staining based immunofluorescence assay; type: functional, cell-based
[11] = tested on: MDA-MB-468; experiment: Induction of DNA damage in human MDA-MB-468 cells assessed as up-regulation of gammaH2AX expression level at 1 uM incubated for 60 mins by DAPI staining based immunofluorescence assay; type: functional, cell-based
[12] = tested on: MDA-MB-468; experiment: Synergistic antiproliferative activity against human MDA-MB-468 cells at compound to Olaparib ratio of 1:3; type: functional, cell-based
[13] = tested on: MDA-MB-468; experiment: Cell cycle arrest in human MDA-MB-468 cells assessed as accumulation at S phase incubated for 72 hrs in presence of olaparib by propidium iodide staining-based flow cytometry analysis (reference value: 21.1%); type: functional
[14] = Toxicity in BALB/c nude mouse xenografted with human MDA-MB-468 cells assessed as morphological changes in liver at 40 to 80 mg/kg, ig administered daily for 16 days measured every 3 days by hematoxyin-eosin staining based analysis; type: organism-based; settings: in vivo, po, 384 h, dose 40-80 mg/kg, time 16 day
[15] = biological target: Bromodomain-containing protein 4 (Homo sapiens, UniProt O60885); experiment: Inhibition of BRD4 (unknown origin) at 1 uM relative to control
[16] = tested on: MDA-MB-231; experiment: Antitumor activity against human MDA-MB-231 cells xenografted in BALB/c nude mouse assessed as downregulation of CtIP at 80 mg/kg by Western blot analysis; type: functional, organism-based
[17] = Toxicity in BALB/c nude mouse xenografted with human MDA-MB-468 cells assessed as morphological changes in heart at 40 to 80 mg/kg, ig administered daily for 16 days measured every 3 days by hematoxyin-eosin staining based analysis; type: organism-based; settings: in vivo, po, 384 h, dose 40-80 mg/kg, time 16 day
[18] = tested on: MDA-MB-468; experiment: Antiproliferative activity against human MDA-MB-468 cells assessed as reduction in cell viability incubated for 72 hrs by MTT assay; type: functional, cell-based; settings: MDA-MB-468, 72 h
[19] = tested on: MDA-MB-231; experiment: Antitumor activity against human MDA-MB-231 cells xenografted in BALB/c nude mouse assessed as reduction in CtIp expression at 80 mg/kg incubated for 30 to 40 mins by immunohistochemical analysis; type: functional, organism-based; settings: time 30-40 min
[20] = tested on: MDA-MB-231; experiment: Antitumor activity against human MDA-MB-231 cells xenografted in BALB/c nude mouse assessed as reduction in c-Myc expression at 80 mg/kg incubated for 30 to 40 mins by immunohistochemical analysis; type: functional, organism-based; settings: time 30-40 min
[21] = Toxicity in BALB/c nude mouse xenografted with human MDA-MB-468 cells assessed as change in body weight at 80 mg/kg, ig administered daily for 16 days measured every 3 days; type: organism-based; settings: in vivo, po, 384 h, time 16 day
[22] = tested on: MDA-MB-231; experiment: Antitumor activity against human MDA-MB-231 cells xenografted in BALB/c nude mouse assessed as downregulation of c-Myc at 80 mg/kg by Western blot analysis; type: functional, organism-based
[23] = Toxicity in BALB/c nude mouse xenografted with human MDA-MB-468 cells assessed as morphological changes in lung at 40 to 80 mg/kg, ig administered daily for 16 days measured every 3 days by hematoxyin-eosin staining based analysis; type: organism-based; settings: in vivo, po, 384 h, dose 40-80 mg/kg, time 16 day
[24] = Toxicity in BALB/c nude mouse xenografted with human MDA-MB-468 cells assessed as morphological changes in lung at 80 mg/kg, ig administered daily for 16 days measured every 3 days by hematoxyin-eosin staining based analysis; type: organism-based; settings: in vivo, po, 384 h, time 16 day
[25] = tested on: MDA-MB-231; experiment: Antiproliferative activity against human MDA-MB-231 cells assessed as reduction in cell viability incubated for 72 hrs by MTT assay; type: functional, cell-based; settings: MDA-MB-231, 72 h
[26] = Toxicity in BALB/c nude mouse xenografted with human MDA-MB-468 cells assessed as death at 80 mg/kg, ig administered daily for 16 days measured every 3 days; type: organism-based; settings: in vivo, po, 384 h, time 16 day
[27] = Toxicity in BALB/c nude mouse xenografted with human MDA-MB-468 cells assessed as change in body weight at 40 to 80 mg/kg, ig administered daily for 16 days measured every 3 days; type: organism-based; settings: in vivo, po, 384 h, dose 40-80 mg/kg, time 16 day
[28] = tested on: MDA-MB-468; experiment: Antitumor activity against human MDA-MB-468 cells xenografted in BALB/c nude mouse model assessed as tumor growth inhibition at 80 mg/kg, ig administered daily for 16 days measured every 3 days relative to control; type: functional; settings: MDA-MB-468, po, 384 h, time 16 day, read-out: TGI
[29] = Toxicity in BALB/c nude mouse xenografted with human MDA-MB-468 cells assessed as morphological changes in spleen at 80 mg/kg, ig administered daily for 16 days measured every 3 days by hematoxyin-eosin staining based analysis; type: organism-based; settings: in vivo, po, 384 h, time 16 day
[30] = Toxicity in BALB/c nude mouse xenografted with human MDA-MB-468 cells assessed as morphological changes in spleen at 40 to 80 mg/kg, ig administered daily for 16 days measured every 3 days by hematoxyin-eosin staining based analysis; type: organism-based; settings: in vivo, po, 384 h, dose 40-80 mg/kg, time 16 day
[31] = Toxicity in BALB/c nude mouse xenografted with human MDA-MB-468 cells assessed as morphological changes in kidney at 40 to 80 mg/kg, ig administered daily for 16 days measured every 3 days by hematoxyin-eosin staining based analysis; type: organism-based; settings: in vivo, po, 384 h, dose 40-80 mg/kg, time 16 day
[32] = Toxicity in BALB/c nude mouse xenografted with human MDA-MB-468 cells assessed as morphological changes in kidney at 80 mg/kg, ig administered daily for 16 days measured every 3 days by hematoxyin-eosin staining based analysis; type: organism-based; settings: in vivo, po, 384 h, time 16 day
[33] = tested on: MDA-MB-231; experiment: Antitumor activity against human MDA-MB-231 cells xenografted in BALB/c nude mouse assessed as downregulation of Rad51 at 80 mg/kg by Western blot analysis; type: functional, organism-based
[34] = Toxicity in BALB/c nude mouse xenografted with human MDA-MB-468 cells assessed as morphological changes in liver at 80 mg/kg, ig administered daily for 16 days measured every 3 days by hematoxyin-eosin staining based analysis; type: organism-based; settings: in vivo, po, 384 h, time 16 day
[35] = tested on: MDA-MB-231; experiment: Antitumor activity against human MDA-MB-231 cells xenografted in BALB/c nude mouse assessed as tumor growth inhibition at 80 mg/kg incubated for 30 to 40 mins by Ki-67 staining based immunohistochemical analysis; type: functional, organism-based; settings: time 30-40 min
[36] = Toxicity in BALB/c nude mouse xenografted with human MDA-MB-468 cells assessed as death at 40 to 80 mg/kg, ig administered daily for 16 days measured every 3 days; type: organism-based; settings: in vivo, po, 384 h, dose 40-80 mg/kg, time 16 day
[37] = biological target: T1, Poly [ADP-ribose] polymerase 1 (Homo sapiens, UniProt P09874); experiment: Inhibition of PARP1 (unknown origin) using NAD+ as substrate incubated for 60 mins by ELISA
[38] = biological target: T1, Poly [ADP-ribose] polymerase 1; experiment: Inhibition of PARP1 (unknown origin) at 1 uM relative to control
[39] = Toxicity in BALB/c nude mouse xenografted with human MDA-MB-468 cells assessed as morphological changes in heart at 80 mg/kg, ig administered daily for 16 days measured every 3 days by hematoxyin-eosin staining based analysis; type: organism-based; settings: in vivo, po, 384 h, time 16 day
[40] = tested on: MDA-MB-231; experiment: Antitumor activity against human MDA-MB-231 cells xenografted in BALB/c nude mouse assessed as reduction in PAR expression at 80 mg/kg incubated for 30 to 40 mins by immunohistochemical analysis; type: functional, organism-based; settings: time 30-40 min
[41] = tested on: MDA-MB-231; experiment: Antitumor activity against human MDA-MB-231 cells xenografted in BALB/c nude mouse assessed as reduction in Rad51 expression at 80 mg/kg incubated for 30 to 40 mins by immunohistochemical analysis; type: functional, organism-based; settings: time 30-40 min
[42] = tested on: MDA-MB-231; experiment: Antitumor activity against human MDA-MB-231 cells xenografted in BALB/c nude mouse assessed as downregulation of PAR at 80 mg/kg by Western blot analysis; type: functional, organism-based

T1 sequence (P09874 whole entry): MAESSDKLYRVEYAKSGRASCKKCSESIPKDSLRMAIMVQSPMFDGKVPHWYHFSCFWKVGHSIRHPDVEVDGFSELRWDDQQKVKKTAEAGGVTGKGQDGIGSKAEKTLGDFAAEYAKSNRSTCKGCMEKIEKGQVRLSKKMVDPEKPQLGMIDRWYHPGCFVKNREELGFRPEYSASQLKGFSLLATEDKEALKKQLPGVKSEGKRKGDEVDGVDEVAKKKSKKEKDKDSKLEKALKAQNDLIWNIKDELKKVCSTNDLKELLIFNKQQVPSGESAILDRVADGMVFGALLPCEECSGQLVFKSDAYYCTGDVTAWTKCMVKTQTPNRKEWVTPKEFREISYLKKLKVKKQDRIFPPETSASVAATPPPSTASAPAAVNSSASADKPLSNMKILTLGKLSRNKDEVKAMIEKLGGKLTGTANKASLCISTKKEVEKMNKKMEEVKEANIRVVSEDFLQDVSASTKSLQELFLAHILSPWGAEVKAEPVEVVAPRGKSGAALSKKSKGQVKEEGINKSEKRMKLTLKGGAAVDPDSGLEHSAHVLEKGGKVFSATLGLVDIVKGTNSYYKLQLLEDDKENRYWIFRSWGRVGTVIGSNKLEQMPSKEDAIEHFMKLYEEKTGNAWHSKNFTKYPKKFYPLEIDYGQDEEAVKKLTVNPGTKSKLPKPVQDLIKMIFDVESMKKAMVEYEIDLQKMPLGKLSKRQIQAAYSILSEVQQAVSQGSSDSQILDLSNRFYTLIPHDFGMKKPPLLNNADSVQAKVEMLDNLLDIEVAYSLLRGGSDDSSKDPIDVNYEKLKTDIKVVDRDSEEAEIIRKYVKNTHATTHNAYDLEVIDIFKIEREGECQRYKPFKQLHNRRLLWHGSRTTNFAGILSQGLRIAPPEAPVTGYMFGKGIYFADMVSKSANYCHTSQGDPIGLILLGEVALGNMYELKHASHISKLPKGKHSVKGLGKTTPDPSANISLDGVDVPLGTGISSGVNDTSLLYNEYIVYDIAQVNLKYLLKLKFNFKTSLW

Cc1sc2c(c1C)C(c1ccc(Cl)cc1)=NC(CC(=O)OC(C)(C)C)c1nnc(C)n1-2 (configuration not stated)
7.3%: Activity [7]
30.72%: Activity [6]
58.9%: Activity [3]
active: Activity [1] | Activity [2] | Activity [5] | Activity [8] | Activity [9] | Activity [10] | Activity [11] | Activity [12]
12.8%: Activity [4]
27.9%: Activity [13]

COc1cc(OC)c2c(=O)[nH]c(-c3cc(C)c(OCCOc4ccccc4C(N)=O)c(C)c3)nc2c1
35.9%: inhibition [38]
15.6 µM: IC50 [25]
4.6 nM: IC50 [37]
6.42 µM: IC50 [18]
62.5%: inhibition in vivo at 80 mg/kg [28]
Non-Toxic: Activity [14] | Activity [17] | Activity [21] | Activity [23] | Activity [24] | Activity [26] | Activity [27] | Activity [29] | Activity [30] | Activity [31] | Activity [32] | Activity [34] | Activity [36] | Activity [39]
active: Activity [16] | Activity [19] | Activity [20] | Activity [22] | Activity [33] | Activity [35] | Activity [40] | Activity [41] | Activity [42]
66.2%: inhibition [15]
